# Patent publication US12168033B2, “Synergistic composition for osteoarthritis” (LAILA NUTRACEUTICALS, priority 2014, dated 2024)
# Tested on: Adjuvant Induced Arthritis
# Assay: Adjuvant Induced Arthritis in Sprague Dawley rats, Complete Freund's Adjuvant, 20 days (Example 20)
# Type: in vivo
# Description: Sprague Dawley Rats were housed in solid bottom autoclaved polypropylene cages at three rats per cage with stainless steel top grill. Animals were provided with rodent pellet feed and mineral water ad libitum. The animals were acclimatized for a period of 3 days prior to enrollment into the experiment and they are habituated/adapted to the experimenter and to the experimental conditions for measurement of hind limb weight bearing capacity in the Incapacitance meter. A group of 35 animals were examined and 30 healthy SD rats were selected for the study and were randomly assigned to one of five different groups based on the paw volume, i.e., normal control (G1), vehicle control (G2), two groups (G3 & G4) supplemented with test substances composition-11 (200 mg 400 mg) and with reference drug prednisolone 10 mg/kg (G5). After 7 days administration of test item, reference item or vehicle, on day 8 arthritis was induced in rats of all groups except G1 by a single subcutaneous injection of 50 μL Complete Freund's Adjuvant (Sigma-Aldrich, USA), into the sub plantar region of left hind limb. Control group animals were injected with 0.1 mL normal saline (0.9% w/v sodium chloride). The vehicle, test items and reference drug were administered till completion of the study, i.e., 20 days. Paw volume was measured by a Plethysmometer (Pan Lab, LE7500) on day 0 (prior to treatment) and day 20. The difference between the final and initial paw volume was considered as edema volume. The in vivo anti-inflammatory responses of test compounds were estimated by calculating the percentage inhibition of paw edema when compared to the paw edema observed in the CMC supplemented control group. […] Percentage weight bearing capacity was measured in all the groups before induction and on 20th day of treatment using Incapacitance Meter (IITC Life Science Inc., CA).
smiles,measurement,setting,value
"C[C@]12C=CC(=O)C=C1CC[C@@H]1[C@@H]2[C@@H](O)C[C@@]2(C)[C@H]1CC[C@]2(O)C(=O)CO [Prednisolone, prednisolone]","Percent Weight Bearing on Left Hind Limb, Day-20","10 mmp (prednisolone), Day-20, mean ± S.E.M, six rats",49.88 ± 1.13%
same,"Percent Weight Bearing on Left Hind Limb, Before Induction","10 mmp (prednisolone), before induction",49.57 ± 0.55%
same,% inhibition of paw edema,"prednisolone 10 mg/kg, day 20",69.7%
